Literature values as cited in US7087611B2, “Preparation of an anhydrate form of 5-[2-[4-(1,2-benzisothiazol-3-yl)-1-piperazinyl]ethyl]-6-chloro-1,3-dihydro-2H-indol-2-one hydrochloride (ziprasidone hydrochloride)” (Apotex Pharmachem Inc., priority 2004, dated 2006).
Structures can show the parent of a compound that is named as a salt.

Tests used:
[1] = crystalline monohydrate form; background statement
[2] = crystalline monohydrate form; as stated in U.S. Pat. No. 5,312,925

aqueous solubility [1]: very low
hygroscopic stability [2]: substantially hygroscopically stable
Structure (SMILES): O=C1Cc2cc(CCN3CCN(c4nsc5ccccc45)CC3)c(Cl)cc2N1 [ziprasidone hydrochloride monohydrate]
